# Patent publication US9867827B1, “Methods and formulations for topical treatment of psoriasis” (Florida A&M University, priority 2015, dated 2018)
# Entries after “also recorded” stand apart in the source; their conditions may differ.
# Tests used:
# IL23 = assay: Western blot analysis of skin samples, IL23; format: in vivo, C57BL/6 mice; settings: compared to the TOPGRAF group, p<0.05
# Experimental: (§1) At the end of the study, skin samples were harvested and analyzed for inflammatory proteins by immunohistochemistry and western blot analyses.
# (§2) For western blot analysis, skin samples were minced in lysis cocktail composed of RIPA lysis buffer, protease inhibitor (PI) and phenylmethylsulfonyl fluoride (PMSF). BCA Protein Assay Reagent Kit was used to estimate the protein concentration per the manufacturer's protocol. 50 μg of the extracted protein for each sample was loaded into a gel and subjected to SDS-polyacrylamide electrophoresis (SDS-PAGE). The blots were incubated with primary antibodies for TNFα, NFkB, IL23, IL17, and β-actin and subsequently detected with Horseradish peroxidase-conjugated secondary antibodies using a SUPERSIGNAL WEST PICO Chemiluminescent Substrate (Pierce, Rockford, Ill., USA) and BIORAD CHEMIDOC XRS+ imaging system (Hercules, Calif., USA).
# IL17 = assay: Western blot analysis of skin samples, IL17; format: in vivo, C57BL/6 mice; settings: compared to the TOPGRAF group, p<0.05
# Experimental: as §1, §2
# TNFα = assay: Western blot analysis of skin samples, TNFα; format: in vivo, C57BL/6 mice; settings: compared to the TOPGRAF group, p<0.05
# Experimental: The animals were then treated by applying cetylpyridinum chloride (CPC)-urea gel containing blank formulation as negative control, pemetrexed formulation, siTNFα formulation, pemetrexed-siTNFα combination formulation, or a known tacrolimus cream (TOPGRAF) as a positive control.
# as §2, with “S[…]” for “SUPERSIGNAL WEST”
# [1] = system: IMQ-induced psoriatic-like plaques; settings: after five treatments
# Experimental: (§3) Briefly, IMQ cream was applied topically to the shaven dorsal regions of C57BL/6 mice (4 mg/day/animal) to form psoriatic-like plaques. […] The CPC-urea gels containing the foregoing formulations were applied to the inflamed dorsal regions of the animals for five (5) consecutive days.
# A clinical scoring method for the PASI was used daily to score the severity of the inflammation induced on the dorsal regions of the mice, based on the extent of erythema, scaling, and epidermal thickening. The PASI score was assigned daily after initiating treatment on a scale of 0 to 4, where 0 indicated no inflammation, 1 indicated slight inflammation, 2 indicated moderate inflammation, 3 indicated marked inflammation, and 4 indicated very severe inflammation.
# [2] = system: IMQ-induced psoriatic-like plaques; settings: after five treatments, topical
# Experimental: as §3
# The TEWL was estimated using DELFIN VAPOMETER (DELFIN Technologies Ltd, Finland) as a measure of the extent of skin damage and healing with each day of treatment. The device was placed gently on the dorsal region of the mice each day of treatment and the value corresponding to water loss was recorded.
# NFkB = assay: Western blot analysis of skin samples, NFkB; format: in vivo, C57BL/6 mice; settings: compared to the TOPGRAF group, p<0.05
# Experimental: as §1, §2
structure (smiles),measurement,setting,value
Nc1nc2[nH]cc(CCc3ccc(C(=O)N[C@@H](CCC(=O)O)C(=O)O)cc3)c2c(=O)[nH]1 [pemetrexed],expression of IL23 (western blot),IL23,significant reduction; also recorded: decreased expressions
same,expression of IL17 (western blot),IL17,significant reduction; also recorded: decreased expressions
same,expression of TNFα (western blot),TNFα,significant reduction
same,PASI score compared to tacrolimus cream (TOPGRAF),[1]; topical,better PASI score; also recorded: superior
same,erythema and scaling compared to other groups,[1]; topical,significant reduction in erythema and scaling
same,PASI score,"[1]; topical CPC-urea gel, scale of 0 to 4",~0
same,psoriatic plaque,"[1]; topical, b57 compared to TOPGRAF",reduction in psoriatic plaque
same,TEWL compared to tacrolimus cream (TOPGRAF),[2],better TEWL
same,expression of NFKB (western blot),NFkB,significant reduction
